The values below are quoted from earlier work in patent US8980299B2, “Method of making a vascular closure device” (Cordis Corporation, priority 2007, dated 2015).

In this data set the test system is S. aureus. To be noted: suitable growth medium; Bhargava et al., Am J Infect Control, June 1996.

With `Oc1cc(Cl)ccc1Oc1ccc(Cl)cc1Cl` [2,4,4′-trichloro-2′hydroxydiphenyl ether, 2,4,4′-trichloro-2′-hydroxydiphenyl ether], the “minimum inhibitory concentration (MIC) against S. aureus” value is recorded as 0.01 ppm.
